“Also recorded” adds a separate entry of the source.
How the values were obtained:
E. coli ATCC 25922 = experiment: Antimicrobial efficacy (resazurin virtual colony count); format: cell-based, Escherichia coli; conditions: for increase of EC50 in presence of albumin relative to EC50 in DPBS: DPBS + 4% (w/v) bovine serum albumin versus DPBS; for decrease of efficacy in DPBS relative to 10 mM Na-PO4: DPBS versus 10 mM Na-PO4; for decrease of efficacy under physiologically relevant ionic conditions: PBS versus low ionic conditions
[1] = test system: E. coli ML35p outer membrane; experiment: NPN assay, outer membrane perturbation; format: cell-based, Escherichia coli; conditions: 25 μM peptide, 25 μM PMB = 100%
Procedure: Interactions with Bacterial Membranes. Interaction of the peptides with bacterial membranes in different phosphate buffers were evaluated using E. coli ML35p, constructed in our laboratory. At first, competent cells of E. coli ML35 were produced by conventional competent cell preparation method, then transformed with pBR322 plasmid. Transformed colonies were selected after growing on Luria-agar containing 50 μg/mL ampicillin. A single transformed colony was grown in presence of ampicillin first in Luria broth and then in MHBII and stored as 20% glycerol stock at −80° C. This frozen stock, on the day of the experiment, was thawed and grown in MHBII containing ampicillin up to OD600 nm=0.8-0.9, washed with PBS and then suspended in the respective buffer up to the required OD600 nm for use.
NPN Assay. The outer membrane perturbation of bacteria was evaluated by incubating E. coli ML35p with peptides in presence of NPN. 100 mM NPN in acetone was supplemented proportionately to a bacterial suspension of OD600 nm˜0.5 to achieve a final concentration of 20 μM of NPN and the mixture was equilibrated for 30 mins. Then, 90 μL of the bacterial suspension containing 20 μM NPN was added with 10 μL of 250 μM peptide (10×) solution in water and scanned for fluorescence intensity (excitation=350 nm, emission=420 nm). The % Perturbation was calculated by considering PMB to be causing 100% Perturbation and water (without peptide) as 0% Perturbation. Each peptide was tested in triplicate in each of the three phosphate buffers used.
When peptides partition from the bulk aqueous environment to the cellular membranes, they may cause small defects in the membrane organization, a signature of adsorption of the peptides into the membranes. Such small defects are called membrane perturbations and can be evaluated by utilizing molecular probes. One such molecular probe is NPN, which is a hydrophobic molecule and is usually repelled to enter the hydrophobic interiors of the membrane by the polar headgroups of membrane-lipids. However, when small defects and gaps are caused during the adsorption of the peptides into the membranes, NPN can enter through those defects and in the hydrophobic environment of the membrane interior the molecule fluoresces, which can be measured for quantification of the extent of membrane-perturbation and peptide adsorption in the cellular membrane.

[2] = DPBS (with Ca++ and Mg++), pH 7.4
[3] = PBS (high / physiologically relevant ionic strength), pH 7.4

KRAKKFFKKLK (SEQ ID NO: 4) [ATRA1-A]
antimicrobial efficacy, in words (E. coli ATCC 25922; [2]): lose activity in DPBS | antimicrobial efficacy, in words (E. coli ATCC 25922; [3]): retained some antimicrobial activity | membrane perturbation with respect to PMB ([1]; DPBS): less effective at perturbing the outer membrane than ATRA-1

KRAKKFFKRLK (SEQ ID NO: 6) [ATRA1-AR]
antimicrobial efficacy, in words (E. coli ATCC 25922; [3]): completely ineffective | membrane perturbation with respect to PMB ([1]; PBS): decreased slightly

KRFKKFFKKLK (SEQ ID NO: 2) [ATRA1, first 11 residues of NA-CATH]
antimicrobial efficacy, in words (E. coli ATCC 25922; [2]): lose activity in DPBS; also recorded: lost antimicrobial property | antimicrobial efficacy, in words (E. coli ATCC 25922; [3]): effective in PBS | membrane perturbation with respect to PMB ([1]; DPBS): less than 50% | membrane perturbation with respect to PMB ([1]; PBS): perturbed comparable to PMB

KRFKKFFKKLKGGVIGVTFPF (SEQ ID NO: 38) [ATRA1-HYD, ATRA1 with hydrophobic tail of NA-CATH joined at the C-terminus by a short -GG- segment]
increase of EC50 in presence of albumin relative to EC50 in DPBS (E. coli ATCC 25922): approximately 2 fold | decrease of efficacy in DPBS relative to 10 mM Na-PO4 (E. coli ATCC 25922): ~10 fold | membrane perturbation with respect to PMB ([1]; DPBS): ~75%

KRFKKFFKKLKNSVKKRAKKFFKKPK (SEQ ID NO: 53) [NA-CATH26, first 26 residues of NA-CATH]
decrease of efficacy in DPBS relative to 10 mM Na-PO4 (E. coli ATCC 25922): ~14 fold | decrease of efficacy under physiologically relevant ionic conditions (E. coli ATCC 25922): approximately 2 fold | membrane perturbation with respect to PMB ([1]; 10 mM phosphate buffer): higher degree of membrane perturbations than PMB | membrane perturbation with respect to PMB ([1]; PBS): perturbed outer membrane greater than PMB

KRWKKWWKKWK (SEQ ID NO: 14) [ATRA1-W4]
antimicrobial efficacy, in words (E. coli ATCC 25922; [2]): most effective in DPBS | membrane perturbation with respect to PMB ([1]; DPBS): higher OM perturbation than ATRA1

RRFKRFFKRLK (SEQ ID NO: 9) [ATRA1-R3]
antimicrobial efficacy, in words (E. coli ATCC 25922; [2]): significantly reduced in DPBS relative to its activity in PBS | membrane perturbation with respect to PMB ([1]; DPBS): higher OM perturbation than ATRA1

RRFRRFFRRLR (SEQ ID NO: 10) [ATRA1-R6]
antimicrobial efficacy, in words (E. coli ATCC 25922; [2]): highly effective in DPBS | membrane perturbation with respect to PMB ([1]; DPBS): higher OM perturbation than ATRA1 | membrane perturbation with respect to PMB ([1]; PBS): decreased slightly

RRWKRFFKRWK (SEQ ID NO: 15) [ATRA1-R3W2]
antimicrobial efficacy, in words (E. coli ATCC 25922; [2]): more effective than either of its parent peptides | increase of EC50 in presence of albumin relative to EC50 in DPBS (E. coli ATCC 25922): ~5 fold | decrease of efficacy in DPBS relative to 10 mM Na-PO4 (E. coli ATCC 25922): approximately 3 fold | antimicrobial efficacy, in words (E. coli ATCC 25922; serum): no antimicrobial property | membrane perturbation with respect to PMB ([1]; DPBS): higher OM perturbation than ATRA1 | membrane perturbation with respect to PMB ([1]; DPBS, listed as ATRA-R3W2): ~65% | membrane perturbation with respect to PMB ([1]; PBS): perturbed comparable to PMB

RRWKRFFKRWKGGVIGVTFPF (SEQ ID NO: 50) [ATRA1-R3W2-HYD, ATRA1-R3W2 with hydrophobic tail of NA-CATH joined by -GG-]
increase of EC50 in presence of albumin relative to EC50 in DPBS (E. coli ATCC 25922): did not demonstrate significant changes in EC50 values | decrease of efficacy under physiologically relevant ionic conditions (E. coli ATCC 25922): ~5 fold | membrane perturbation with respect to PMB ([1]; 10 mM phosphate buffer): 75% | membrane perturbation with respect to PMB ([1]; DPBS): ~100% | membrane perturbation with respect to PMB ([1]; PBS): comparable to PMB
